According to patent US11066401B2, “Pyrimidine compound, chloride salt thereof, and manufacturing and application of same” (SHENZHEN HAIBIN PHARMACEUTICAL CO., LTD, priority 2016, dated 2021):
Where a name gives a salt, the structure may show the parent alone. Read-outs that look alike come from different tables or passages of the source.

How the values were obtained:
[1] = Test for hygroscopicity (Chinese Pharmacopeia 2010, Appendix XIX J); assay type: physicochemical
Experimental: The experiment was carried out according to Guiding Principles of Drug Hygroscopicity Test, Appendix XIX J, Second Part, Chinese Pharmacopeia (2010), the weight increased by hygroscopy of samples (compound shown in Formula (I) and salts thereof prepared in EXAMPLES 1-17) was calculated respectively, the results were shown in Table 4.

[2] = Test for stability: related substances under high temperature and illumination (HPLC); assay type: physicochemical; settings: for Related substances Day 10 under high temperature / Related substances Day 10 under illumination condition / Related substances Day 0: acetonitrile-water (1:1) solution; for Related substances Day 10 under high temperature: 60° C., in % (unit assumed); for Related substances Day 10 under high temperature / Related substances Day 10 under illumination condition: 10 days, area normalization; for Related substances Day 10 under illumination condition: 4500 lx±500 lx; for Related substances Day 0: day 0, area normalization
Experimental: The experiment was carried out according to Guiding Principles of Active Pharmaceutical Ingredient and Pharmaceutical Formulation Stability Test, Appendix XIX C, Second Part, Chinese Pharmacopeia (2010), the increase of related substance of the solution of compounds shown in formula (I) and salts thereof (EXAMPLES 1-17) under high temperature condition (60° C.) and illumination (the light intensity was 4500 lx±500 lx) was detected to evaluate the stability.
Wherein, the method for detecting related substance was shown as following:
HPLC: Waters 2695 UV Detector
Chromatographic Column: Diamonsil C18 (2) 5 μm, 150×4.6 mm
Detection wavelength: 322 nm
Column temperature: 30° C.
Mobile phase B: buffer (900 ml water+10 ml triethylamine+5 ml phosphoric acid, being diluted to 1000 ml with water)
The testing samples were prepared by using acetonitrile-water (1:1) solution with a concentration of 10-100 μg/ml, kept under high temperature (60° C.) and illumination (the light intensity was 4500 lx±500 lx) respectively for 10 days, the mass of related substance was determined on day 0 and day 10 (calculated by using area normalization), the results were shown in Table 6.

PIM3 = PIM3 (Homo sapiens, UniProt Q86V86); experiment: Assay of PIM kinase activity, PIM3; assay type: biochemical; settings: 6 concentrations, initial concentration 30 nM; read-out: IC50 PIM 3
Experimental: (§1) Dose-dependent experiments on PIM1, PIM2 and PIM3 were commissioned to Shanghai Runnuo Biotechnology, 6 concentration gradients were set, the initial concentration was 30 nM, 200 nM and 30 nM, then diluted successively, the inhibitive effects of compounds on PIM kinase was tested, the results were shown in Table 9.

[3] = Pharmacokinetic test, absolute bioavailability in rats; assay type: in vivo; settings: male SD rats, i.g. 40 mg/kg vs i.v. 20 mg/kg
Experimental: 48 male SD rats with a body weight of 200-220 g were randomly divided into 8 groups with 6 mice each group, administered the compound shown in Formula (I), the hydrochloride salt, mesylate and acetate thereof intragastrically (i.g.) and intravenously (i.v.) respectively, and the protocol was shown in Table 7:
Intragastric administration: 2% of HPMC
Intravenous administration: a solution prepared with 20% PEG
The rats were fasted for 12 hours with free access to water prior to experiment; and fed together 2 hours after administration.
Blood sampling time points: 5 min (only administering intravenously), 0.25 h, 0.5 h, 1.0 h, 2.0 h, 4.0 h, 6.0 h, 8.0 h and 24 h after administration;
Sample treatment: 0.3 ml venous blood was obtained from rats' posterior ocular vein plexus at the above-mentioned time points, put into a heparinized tube, centrifuged for 5 minutes at 11000 rpm to separate plasma, then frozen in a refrigerator at −20° C.
The concentration of parent drugs in rat's plasma was detected by utilizing LC/MS/MS.
Wherein, F: absolute bioavailability; AUC: area under the curve; D: Dosage

PIM2 = PIM2 (Homo sapiens, UniProt Q9P1W9); experiment: Assay of PIM kinase activity, PIM2; assay type: biochemical; settings: 6 concentrations, initial concentration 200 nM; read-out: IC50 PIM 2
Experimental: as §1

PIM1 = PIM1 (Homo sapiens, UniProt P11309); experiment: Assay of PIM kinase activity, PIM1; assay type: biochemical; settings: 6 concentrations, initial concentration 30 nM; read-out: IC50 PIM 1
Experimental: as §1

[4] = Test of solubility in water (HPLC)
Experimental: Wherein, the chromatographic condition was shown as follows:
Chromatographic Column: C18
Column temperature: 25° C.
Mobile phase A: 0.1% TFA-water
Mobile phase B: 0.1% TFA-CAN

Sequence of PIM2 (Q9P1W9 whole entry): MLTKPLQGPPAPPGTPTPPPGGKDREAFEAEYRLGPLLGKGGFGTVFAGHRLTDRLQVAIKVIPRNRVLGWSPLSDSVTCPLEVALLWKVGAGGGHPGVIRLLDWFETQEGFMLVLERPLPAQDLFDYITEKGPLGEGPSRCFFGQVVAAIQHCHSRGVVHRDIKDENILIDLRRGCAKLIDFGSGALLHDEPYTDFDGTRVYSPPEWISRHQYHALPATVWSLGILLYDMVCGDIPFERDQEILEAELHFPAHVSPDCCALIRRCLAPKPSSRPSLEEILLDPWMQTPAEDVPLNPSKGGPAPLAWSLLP
Sequence of PIM1 (P11309 whole entry): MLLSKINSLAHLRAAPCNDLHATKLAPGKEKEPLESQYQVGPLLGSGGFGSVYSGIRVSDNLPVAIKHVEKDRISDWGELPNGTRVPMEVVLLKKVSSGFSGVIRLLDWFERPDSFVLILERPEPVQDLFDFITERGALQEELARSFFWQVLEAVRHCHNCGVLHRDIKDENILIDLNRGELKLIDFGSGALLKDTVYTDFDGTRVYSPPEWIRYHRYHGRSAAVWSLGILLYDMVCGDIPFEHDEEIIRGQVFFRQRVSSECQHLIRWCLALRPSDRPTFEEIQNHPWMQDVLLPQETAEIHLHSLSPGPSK

Compound	melting point	Weight increased by hygroscopy [1]	Related substances Day 10 under high temperature [2]	Related substances Day 10 under illumination condition [2]	Related substances Day 0 [2]	IC50 (PIM3)	Absolute Bioavailability [3]	IC50 (PIM2)	IC50 (PIM1)	Weight increased by hygroscopy ([1]; listed as hydrochloride salt)	increase of the amount of related substance ([2]; after 10 days, heat, light)	solubility in water [4]
Nc1sc(-c2c(F)cccc2F)nc1C(=O)Nc1cncnc1OCC1CCNCC1 (as salt: hydrochloride) [EXAMPLE 2]	236.1 to 239.4 °C											
Nc1sc(-c2c(F)cccc2F)nc1C(=O)Nc1cncnc1OCC1CCNCC1 [EXAMPLE 1, 5-amino-2-(2,6-difluorophenyl)-N-(4-(piperidine-4-methoxy)pyrimidine-5-) thiazole-4-formamide]		3.35%	5.02	3.02%	0.45%	23 nM	2.2%	8.09 nM	10 nM			
Nc1sc(-c2c(F)cccc2F)nc1C(=O)Nc1cncnc1OCC1CCNCC1 [EXAMPLE 2]		0.52%	0.68	0.56%	0.49%	4.36 nM	32.2%	1.54 nM	2.31 nM	0.52%	≤ 0.19%	about 1 mg/mL
Br.Nc1sc(-c2c(F)cccc2F)nc1C(=O)Nc1cncnc1OCC1CCNCC1 [EXAMPLE 3]		4.32%	3.45	1.67%	0.52%							
Nc1sc(-c2c(F)cccc2F)nc1C(=O)Nc1cncnc1OCC1CCNCC1.O=C(O)/C=C\C(=O)O [EXAMPLE 4]		5.45%	4.54	2.22%	0.46%							
Nc1sc(-c2c(F)cccc2F)nc1C(=O)Nc1cncnc1OCC1CCNCC1.O=C(O)CCC(=O)O [EXAMPLE 6, Succinate]		7.56%	8.82	4.56%	0.55%							
Nc1sc(-c2c(F)cccc2F)nc1C(=O)Nc1cncnc1OCC1CCNCC1.O=S(=O)(O)O [EXAMPLE 7]		3.56%	4.67	2.45%	0.52%							
Nc1sc(-c2c(F)cccc2F)nc1C(=O)Nc1cncnc1OCC1CCNCC1.O=C(O)CC(O)(CC(=O)O)C(=O)O [EXAMPLE 8]		5.67%	7.34	5.52%	0.52%							
Nc1sc(-c2c(F)cccc2F)nc1C(=O)Nc1cncnc1OCC1CCNCC1.O=C(O)c1ccccc1 [EXAMPLE 9]		7.53%	5.56	4.44%	0.56%							
CS(=O)(=O)O.Nc1sc(-c2c(F)cccc2F)nc1C(=O)Nc1cncnc1OCC1CCNCC1 [EXAMPLE 10]		8.21%	35.6	23%	0.54%		7.32%					
CC(O)C(=O)O.Nc1sc(-c2c(F)cccc2F)nc1C(=O)Nc1cncnc1OCC1CCNCC1 [EXAMPLE 11]		3.67%	10.78	5.67%	0.54%							
CC(=O)O.Nc1sc(-c2c(F)cccc2F)nc1C(=O)Nc1cncnc1OCC1CCNCC1 [EXAMPLE 12]		9.21%	3.56	2.65%	0.62%		5.34%					
Cc1ccc(S(=O)(=O)O)cc1.Nc1sc(-c2c(F)cccc2F)nc1C(=O)Nc1cncnc1OCC1CCNCC1 [EXAMPLE 13]		5.78%	8.94	5.67%	0.65%							
Nc1sc(-c2c(F)cccc2F)nc1C(=O)Nc1cncnc1OCC1CCNCC1.O=C(O)/C=C/C(=O)O [EXAMPLE 15]		4.77%	9.12	6.54%	0.56%							
Ascorbate [EXAMPLE 17]		5.67%	18.98	6.66%	0.56%							
Palmitate [EXAMPLE 14]		6.43%	6.89	3.67%	0.66%							
Tartrate [EXAMPLE 16]		7.88%	6.89	3.33%	0.63%							
